Test results reported in ChEMBL document CHEMBL6127049, “Discovery of the selective and nanomolar inhibitor of DPP-4 more potent than sitagliptin by structure-guided rational design” (Eur J Med Chem, 2024).
Active and inactive are the calls of the source. The calls are words filed in the database; no cut-off is given here.

Assays:
[1] = Acute toxicity in Balb/C mouse assessed as morphological changes in skin at 1250 to 2000 mg/kg, po; assay type: organism-based; details: in vivo, dose 1250-2000 mg/kg
[2] = Acute toxicity in Balb/C mouse assessed as morphological changes in nose at 1250 to 2000 mg/kg, po; assay type: organism-based; details: in vivo, dose 1250-2000 mg/kg
[3] = Acute toxicity in Balb/C mouse assessed as morphological changes in eyes at 1250 to 2000 mg/kg, po; assay type: organism-based; details: in vivo, dose 1250-2000 mg/kg
[4] = Acute toxicity in Balb/C mouse assessed as morphological changes in convulsions at 1250 to 2000 mg/kg, po; assay type: organism-based; details: in vivo, dose 1250-2000 mg/kg
[5] = Acute toxicity in Balb/C mouse assessed as morphological changes in tremors at 1250 to 2000 mg/kg, po; assay type: organism-based; details: in vivo, dose 1250-2000 mg/kg
[6] = Acute toxicity in Balb/C mouse assessed as morphological changes in salvation at 1250 to 2000 mg/kg, po; assay type: organism-based; details: in vivo, dose 1250-2000 mg/kg
[7] = Acute toxicity in Balb/C mouse assessed as morphological changes in unusual behavior at 1250 to 2000 mg/kg, po; assay type: organism-based; details: in vivo, dose 1250-2000 mg/kg
[8] = test system: Rattus norvegicus; assay: Anti-diabetic activity in normal Wistar rat model assessed as blood glucose level at 10 mg/kg, po followed by treated administered 3 mg/kg orally measured after 60 mins by Oral glucose tolerance test (reference value: 153.74 + /- 3.94 mg/dL); assay type: functional; details: 1 h
[9] = test system: Rattus norvegicus; assay: Anti-diabetic activity in normal Wistar rat model assessed as blood glucose level at 10 mg/kg, po followed by treated administered 3 mg/kg orally measured after 90 mins by Oral glucose tolerance test (reference value: 134.11 + /- 4.64 mg/dL); assay type: functional; details: 1.5 h
[10] = test system: Rattus norvegicus; assay: Anti-diabetic activity in normal Wistar rat model assessed as blood glucose level at 20 mg/kg, po followed by treated administered 3 mg/kg orally measured after 30 mins by Oral glucose tolerance test (reference value: 176.14 + /- 4.04 mg/dL); assay type: functional; details: 0.5 h
[11] = test system: Rattus norvegicus; assay: Anti-diabetic activity in normal Wistar rat model assessed as blood glucose level at 20 mg/kg, po followed by treated administered 3 mg/kg orally measured after 60 mins by Oral glucose tolerance test (reference value: 153.74 + /- 3.94 mg/dL); assay type: functional; details: 1 h
[12] = test system: Rattus norvegicus; assay: Anti-diabetic activity in normal Wistar rat model assessed as blood glucose level at 20 mg/kg, po followed by treated administered 3 mg/kg orally measured after 90 mins by Oral glucose tolerance test (reference value: 134.11 + /- 4.64 mg/dL); assay type: functional; details: 1.5 h
[13] = test system: Rattus norvegicus; assay: Anti-diabetic activity in normal Wistar rat model assessed as blood glucose level at 20 mg/kg, po followed by treated administered 3 mg/kg orally measured after 120 mins by Oral glucose tolerance test (reference value: 126.5 + /- 3.90 mg/dL); assay type: functional; details: 2 h
[14] = test system: Rattus norvegicus; assay: Anti-diabetic activity in normal Wistar rat model assessed as blood glucose level at 10 mg/kg, po followed by treated administered 3 mg/kg orally measured immediately after administration by Oral glucose tolerance test (reference value: 105.12 mg/dL); assay type: functional
[15] = test system: Rattus norvegicus; assay: Anti-diabetic activity in normal Wistar rat model assessed as blood glucose level at 20 mg/kg, po followed by treated administered 3 mg/kg orally measured immediately after administration by Oral glucose tolerance test (reference value: 105.12 mg/dL); assay type: functional
[16] = test system: Rattus norvegicus; assay: Anti-diabetic activity in STZ-induced type 2 diabetes male Wistar albino rat model assessed as fasting blood glucose level at 20 mg/kg, po measured on day 1; assay type: functional; details: time 1 day
[17] = test system: Rattus norvegicus; assay: Anti-diabetic activity in STZ-induced type 2 diabetes male Wistar albino rat model assessed as fasting blood glucose level at 20 mg/kg, po measured on day 7; assay type: functional; details: time 7 day
[18] = test system: Rattus norvegicus; assay: Anti-diabetic activity in STZ-induced type 2 diabetes male Wistar albino rat model assessed as fasting blood glucose level at 20 mg/kg, po measured on day 14; assay type: functional; details: time 14 day
[19] = test system: Rattus norvegicus; assay: Anti-diabetic activity in STZ-induced type 2 diabetes male Wistar albino rat model assessed as fasting blood glucose level at 20 mg/kg, po measured on day 21; assay type: functional; details: time 21 day
[20] = test system: Rattus norvegicus; assay: Anti-diabetic activity in STZ-induced type 2 diabetes male Wistar albino rat model assessed as fasting blood glucose level at 20 mg/kg, po measured on day 28; assay type: functional; details: time 28 day
[21] = test system: Rattus norvegicus; assay: Antihyperlipidemic effect in STZ-induced type 2 diabetes male Wistar albino rat model assessed as total cholesterol level at 10 mg/kg, po measured after 4 weeks (reference value: 227.04 +/- 4.10 mg/dL); assay type: functional
[22] = test system: Rattus norvegicus; assay: Antihyperlipidemic effect in STZ-induced type 2 diabetes male Wistar albino rat model assessed as HDL level at 10 mg/kg, po measured after 4 weeks (reference value: 25.54 +/- 2.62 mg/dL); assay type: functional
[23] = test system: Rattus norvegicus; assay: Antihyperlipidemic effect in STZ-induced type 2 diabetes male Wistar albino rat model assessed as LDL level at 10 mg/kg, po measured after 4 weeks (reference value: 184.65 +/- 4.57 mg/dL); assay type: functional
[24] = test system: Rattus norvegicus; assay: Antihyperlipidemic effect in STZ-induced type 2 diabetes male Wistar albino rat model assessed as triglyceride level at 10 mg/kg, po measured after 4 weeks (reference value: 190.23 +/- 4.37 mg/dL); assay type: functional
[25] = test system: Rattus norvegicus; assay: Antihyperlipidemic effect in STZ-induced type 2 diabetes male Wistar albino rat model assessed as total cholesterol level at 20 mg/kg, po measured after 4 weeks (reference value: 227.04 +/- 4.10 mg/dL); assay type: functional
[26] = test system: Rattus norvegicus; assay: Antihyperlipidemic effect in STZ-induced type 2 diabetes male Wistar albino rat model assessed as HDL level at 20 mg/kg, po measured after 4 weeks (reference value: 25.54 +/- 2.62 mg/dL); assay type: functional
[27] = test system: Rattus norvegicus; assay: Antihyperlipidemic effect in STZ-induced type 2 diabetes male Wistar albino rat model assessed as LDL level at 20 mg/kg, po measured after 4 weeks (reference value: 184.65 +/- 4.57 mg/dL); assay type: functional
[28] = test system: Rattus norvegicus; assay: Antihyperlipidemic effect in STZ-induced type 2 diabetes male Wistar albino rat model assessed as triglyceride level at 20 mg/kg, po measured after 4 weeks (reference value: 190.23 +/- 4.37 mg/dL); assay type: functional
[29] = test system: Rattus norvegicus; assay: Reduction of serum glutamate pyruvate transaminase (SGPT) level in STZ-induced type 2 diabetes male Wistar albino rat model at 10 mg/kg, po measured after 4 weeks by hepatic function test; assay type: functional, organism-based
[30] = test system: Rattus norvegicus; assay: Reduction of serum glutamate oxaloacetate transaminase (SGOT) level in STZ-induced type 2 diabetes male Wistar albino rat model at 10 mg/kg, po measured after 4 weeks by hepatic function test; assay type: functional, organism-based
[31] = test system: Rattus norvegicus; assay: Reduction of alkaline phosphatase (ALP) level in STZ-induced type 2 diabetes male Wistar albino rat model at 20 mg/kg, po measured after 4 weeks by hepatic function test; assay type: functional, organism-based
[32] = test system: Rattus norvegicus; assay: Reduction of serum glutamate pyruvate transaminase (SGPT) level in STZ-induced type 2 diabetes male Wistar albino rat model at 20 mg/kg, po measured after 4 weeks by hepatic function test; assay type: functional, organism-based
[33] = test system: Rattus norvegicus; assay: Reduction of serum glutamate oxaloacetate transaminase (SGOT) level in STZ-induced type 2 diabetes male Wistar albino rat model at 20 mg/kg, po measured after 4 weeks by hepatic function test; assay type: functional, organism-based

CC1=C([N+](=O)[O-])C(c2ccc(F)c(F)c2)N=C(N)N1C(=O)CN1Cc2cn(S(C)(=O)=O)nc2C1 (stereo not drawn)
Activity [1]: Non-Toxic
Activity [2]: Non-Toxic
Activity [3]: Non-Toxic
Activity [4]: Non-Toxic
Activity [5]: Non-Toxic
Activity [6]: Non-Toxic
Activity [7]: Non-Toxic
Activity [8]: 118.35 mg/dL
Activity [9]: 113.96 mg/dL
Activity [10]: 119.42 mg/dL
Activity [11]: 115.22 mg/dL
Activity [12]: 110.57 mg/dL
Activity [13]: 111.56 mg/dL
Activity [14]: 103.57 mg/dL
Activity [15]: 101.87 mg/dL
Activity [16]: 294 mg/dL
Activity [17]: 188 mg/dL
Activity [18]: 167 mg/dL
Activity [19]: 134 mg/dL
Activity [20]: 117 mg/dL
Activity [21]: 153.02 mg/dL
Activity [22]: 46.32 mg/dL
Activity [23]: 135.67 mg/dL
Activity [24]: 150.32 mg/dL
Activity [25]: 137.34 mg/dL
Activity [26]: 54.1 mg/dL
Activity [27]: 114.54 mg/dL
Activity [28]: 118.76 mg/dL
Activity [29]: Active
Activity [30]: Active
Activity [31]: Active
Activity [32]: Active
Activity [33]: Active
